Assay results taken from ChEMBL document CHEMBL1142200, “Efficacy of delayed treatment with ST-246 given orally against systemic orthopoxvirus infections in mice” (Antimicrob Agents Chemother, 2007).
Calls of active or inactive are those of the source. No cut-off for these calls is given here.

Key:
[1] = tested on: Mus musculus; assay: Effect on mortality of BALB/c mouse inoculated with Cowpox virus BR at 15 mg/kg after 24 hrs of viral infection, ip for 5 days relative to control; type: functional; conditions: route intraperitoneal
[2] = tested on: Mus musculus; assay: Effect on mortality of BALB/c mouse inoculated with Cowpox virus at 15 mg/kg after 24 hrs of viral infection, ip once daily for 5 days relative to control; type: functional; conditions: route intraperitoneal
[3] = tested on: Mus musculus; assay: Effect on mortality of A/NCr mouse inoculated with 41 PFU ectromelia virus at 100 mg/kg after 4 hrs of viral infection, ip once daily for 14 days; type: functional; conditions: route intraperitoneal
[4] = tested on: Mus musculus; assay: Effect on mortality of A/NCr mouse inoculated with ectromelia virus at 100 mg/kg after 24 hrs of viral infection, ip once daily for 10 days relative control; type: functional; conditions: route intraperitoneal
[5] = tested on: Cowpox virus; assay: Reduction of Cowpox virus BR replication in BALB/c mouse kidney at 15 mg/kg after 24 hrs of viral infection, ip for 5 days; type: functional, organism-based; parameters: dose 15 mg/kg
[6] = tested on: Mus musculus; assay: Effect on mortality of BALB/c mouse inoculated with Cowpox virus at 15 mg/kg after 4 hrs of viral infection, ip once daily for 5 days relative to control; type: functional; conditions: route intraperitoneal
[7] = Selectivity index, ratio of CC50 for HFF cells to EC50 for Cowpox virus Brighton infected HFF cells; type: functional
[8] = tested on: Mus musculus; assay: Effect on mortality of A/NCr mouse inoculated with ectromelia virus at 100 mg/kg after 0 hrs of viral infection, ip once daily for 10 days relative control; type: functional; conditions: route intraperitoneal
[9] = tested on: Vaccinia virus; assay: Reduction of Vaccinia virus WR replication in BALB/c mouse kidney at 15 mg/kg after 24 hrs of viral infection, ip for 5 days; type: functional, organism-based; parameters: dose 15 mg/kg; conditions: Orthopoxvirus vaccinia
[10] = tested on: Mus musculus; assay: Effect on mortality of A/NCr mouse inoculated with ectromelia virus at 100 mg/kg after 72 hrs of viral infection, ip once daily for 10 days relative control; type: functional; conditions: route intraperitoneal
[11] = tested on: Mus musculus; assay: Effect on mortality of BALB/c mouse inoculated with Cowpox virus at 15 mg/kg after 72 hrs of viral infection, ip once daily for 5 days relative to control; type: functional; conditions: route intraperitoneal
[12] = tested on: Mus musculus; assay: Effect on mortality of BALB/c mouse inoculated with Vaccinia virus WR at 15 mg/kg after 24 hrs of viral infection, ip for 5 days relative to control; type: functional; conditions: route intraperitoneal
[13] = tested on: Mus musculus; assay: Effect on mortality of A/NCr mouse inoculated with 410 PFU ectromelia virus at 100 mg/kg after 4 hrs of viral infection, ip once daily for 14 days; type: functional; conditions: route intraperitoneal
[14] = tested on: Cowpox virus; assay: Reduction of Cowpox virus BR replication in BALB/c mouse liver at 15 mg/kg after 24 hrs of viral infection, ip for 5 days; type: functional, organism-based; parameters: dose 15 mg/kg
[15] = tested on: Vaccinia virus; assay: Reduction of Vaccinia virus WR replication in BALB/c mouse liver at 15 mg/kg after 24 hrs of viral infection, ip for 5 days; type: functional, organism-based; parameters: dose 15 mg/kg; conditions: Orthopoxvirus vaccinia
[16] = tested on: Mus musculus; assay: Effect on mortality of A/NCr mouse inoculated with 4100 PFU ectromelia virus at 100 mg/kg after 4 hrs of viral infection, ip once daily for 14 days; type: functional; conditions: route intraperitoneal
[17] = tested on: Mus musculus; assay: Effect on mortality of A/NCr mouse inoculated with ectromelia virus at 100 mg/kg after 48 hrs of viral infection, ip once daily for 10 days relative control; type: functional; conditions: route intraperitoneal
[18] = Cytotoxicity against HFF cells; type: cell-based; conditions: human
[19] = tested on: Vaccinia virus; assay: Reduction of Vaccinia virus WR replication in BALB/c mouse spleen at 15 mg/kg after 24 hrs of viral infection, ip for 5 days; type: functional, organism-based; parameters: dose 15 mg/kg; conditions: Orthopoxvirus vaccinia
[20] = tested on: Mus musculus; assay: Effect on mortality of BALB/c mouse inoculated with Cowpox virus BR at 50 mg/kg after 24 hrs of viral infection, po for 9 days; type: functional, organism-based; parameters: dose 50 mg/kg
[21] = Selectivity index, ratio of CC50 for HFF cells to EC50 for Vaccinia virus WR infected HFF cells; type: functional
[22] = tested on: Cowpox virus; assay: Reduction of Cowpox virus BR replication in BALB/c mouse spleen at 15 mg/kg after 24 hrs of viral infection, ip for 5 days; type: functional, organism-based; parameters: dose 15 mg/kg
[23] = Selectivity index, ratio of CC50 for HFF cells to EC50 for Vaccinia virus Copenhagen infected HFF cells; type: functional
[24] = tested on: Mus musculus; assay: Effect on mortality of A/NCr mouse inoculated with 4.1 PFU ectromelia virus at 100 mg/kg after 4 hrs of viral infection, ip once daily for 14 days; type: functional; conditions: route intraperitoneal
[25] = tested on: Mus musculus; assay: Effect on mortality of BALB/c mouse inoculated with Cowpox virus at 15 mg/kg after 48 hrs of viral infection, ip once daily for 5 days relative to control; type: functional; conditions: route intraperitoneal

Which Activity [1] does the source give for Nc1ccn(C[C@@H](CO)OCP(=O)(O)O)c(=O)n1.O.O [CIDOFOVIR] here?
The Activity was 0%.

What about the Activity [2] of the same molecule?
Its Activity is 0%.

What about the Activity [3] of the same molecule?
The Activity was 40%.

What about the Activity [4] of the same molecule?
The Activity was 0%.

What about the Activity [5] of the same molecule?
Its Activity is “Active”.

What about the Activity [6] of the same molecule?
Its Activity is 0%.

And the “Ratio CC50/EC50” value [7]?
The value was greater than 7.7.

What about the Activity [8] of the same molecule?
The Activity was 0%.

And the Activity [9]?
The Activity was “Active”.

What about the Activity [10] of the same molecule?
The Activity was 0%.

What about the Activity [11] of the same molecule?
The Activity was 0%.

And the Activity [12]?
The Activity was 7%.

And the Activity [13]?
Its Activity is 0%.

What about the Activity [14] of the same molecule?
Its Activity is “Active”.

What about the Activity [15] of the same molecule?
Its Activity is “Active”.

And the Activity [16]?
Its Activity is 0%.

And the Activity [17]?
Its Activity is 0%.

And the CC50 [18]?
Its CC50 is greater than 317 µM.

And the Activity [19]?
Its Activity is “Active”.

And the Activity [20]?
The Activity was “Active”.

What about the “Ratio CC50/EC50” value [21] of the same molecule?
The value was greater than 9.6.

And the Activity [22]?
The Activity was “Active”.

And the “Ratio CC50/EC50” value [23]?
The value was greater than 10.9.

What about the Activity [24] of the same molecule?
Its Activity is 0%.

What about the Activity [25] of the same molecule?
Its Activity is 0%.
